# Measured values from US20210207188A1, “BETA-LACTAM COMPOUNDS AND METHODS OF USE THEREOF” (priority 2018, published 2021).
# What was measured:
# IMP-1 = target: T1, IMP-1 (Serratia marcescens, UniProt P52699); type: biochemical; conditions: IMP-1; for fluorescence signal over time: probe 2.0 μM (MCW-002 1.1 μM, MCW-011 0.5 μM), PBS
# T1 construct: His tag; made in house; host or cells: Escherichia coli
# Experimental: (§1) Recombinant his-tagged beta-lactamases, including NDM-1, IMP-1, KPC-2, VIM-2 and OXA-48 were overexpressed in Escherichia coli. The enzymes were purified using HisTrap Ni-NTA columns. AmpC and TEM were purchased from commercial sources.
# (§2) The fluorescence-based activity assays were performed in phosphate-buffer saline. The concentration of some of the compounds were determined by boiling the compounds in PBS solution until fluorescence signal was saturated. The amount of released fluorophore was quantified via fluorescence spectroscopy by comparing to a corresponding calibration curve.
# KPC-2 = target: T2, KPC-2 (Klebsiella pneumoniae, UniProt Q9F663); type: biochemical; conditions: for fluorescence signal over time: probe 2.0 μM (MCW-002 1.1 μM, MCW-011 0.5 μM), PBS
# T2 construct: His tag; made in house; host or cells: Escherichia coli
# Experimental: as §1, §2
# NDM-1 = target: T3, NDM-1 (Klebsiella pneumoniae, UniProt C7C422); type: biochemical; conditions: for fluorescence signal over time: probe 2.0 μM (MCW-002 1.1 μM, MCW-011 0.5 μM), PBS
# T3 construct: His tag; made in house; host or cells: Escherichia coli
# Experimental: as §1, §2
# AmpC = experiment: Activity of beta-lactamases towards probes (fluorescence-based activity assay), AmpC; type: biochemical; conditions: probe 2.0 μM (MCW-002 1.1 μM, MCW-011 0.5 μM), PBS
# Experimental: as §1, §2
# TEM = target: T4, TEM (Escherichia coli, UniProt P62593); experiment: Activity of beta-lactamases towards probes (fluorescence-based activity assay), TEM; type: biochemical; conditions: probe 2.0 μM (MCW-002 1.1 μM, MCW-011 0.5 μM), PBS
# T4 construct: purchased
# Experimental: as §1, §2
# [1] = test system: beta-lactamases, including NDM-1, IMP-1, VIM-2, KPC-2, OXA-48, AmpC, and TEM; experiment: Fluorescence-based activity assay, whole panel of tested beta-lactamases; type: biochemical; conditions: for specificity among the tested beta-lactamases: conclusion from fluorescence signals; for changes in the fluorescence signal with the tested beta-lactamases: probe 2.0 μM, MCW-010 within 20 minutes
# Experimental: as §1, §2
# Among the tested beta-lactamases, NDM-1, IMP-1, VIM-2, KPC-2 and OXA-48 are carbapenemases, whereas AmpC and TEM are not. Nitrocefin was used as a control to test the activity of the beta-lactamases because it can be hydrolyzed by a wide range of beta-lactamases.
# OXA-48 = target: T5, OXA-48 (Klebsiella pneumoniae, UniProt Q6XEC0); type: biochemical; conditions: for fluorescence signal over time: probe 2.0 μM (MCW-011 0.5 μM), PBS
# T5 construct: His tag; made in house; host or cells: Escherichia coli
# Experimental: as §1, §2
# VIM-2 = target: T6, VIM-2 (Escherichia coli, UniProt Q5U7L7); type: biochemical; conditions: for fluorescence signal over time: probe 2.0 μM (MCW-011 0.5 μM), PBS
# T6 construct: His tag; made in house; host or cells: Escherichia coli
# Experimental: as §1, §2
# [2] = test system: clinical isolates (CPE, Carbapenemase Producing Enterobacteriaceae, and Non CPE strains); experiment: Selectivity of probes with clinical isolates in lysis buffer (visible light and UV light); type: cell-based; conditions: probe 10 μM
# Experimental: The selectivity of some probes were evaluated with clinical isolates. The carbapenemases presence in the bacteria (CPE, i.e., Carbapenemase Producing Enterobacteriaceae) were verified by PCR (Polymerase Chain Reaction). 1 μL loop-full of each test bacterium from overnight-cultured LB agar plate were added to 100 μL PBS buffer with 0.5% CHAPS. The bacteria were vortexed to give a homogenious suspension and incubated for 15 min. To each of the bacteria-lysis buffer mixture (20 μL) were added quick test reagents (Probes (Final concentration=10 μM), CarbaNP solution A and CarbaNP solution B). CarbaNP solutions A and B were freshly prepared according to CLSI protocol, where solution A contains 10 mM zinc sulphate and phenol red buffer at pH=7.8±0.1 and solution B was a mixture of solution A with 3 mg/mL imipenem.
Structure (SMILES),fluorescence signal over time (IMP-1),fluorescence signal over time (KPC-2),fluorescence signal over time (NDM-1),fluorescence signal over time (AmpC),fluorescence signal over time (TEM),specificity among the tested beta-lactamases [1],changes in the fluorescence signal with the tested beta-lactamases [1],fluorescence signal over time (VIM-2),also measured
"CC[Si](CC)(CC)O[C@H](C)[C@H]1C(=O)N2C(C(=O)O)=C(/C=C/COc3ccc(COc4ccc5nc6ccc(=O)cc-6oc5c4)cc3OC)C[C@H]12 [MCW-002, (5R,6S)-3-((E)-3-(2-methoxy-4-(((3-oxo-3H-phenoxazin-7-yl)oxy)methyl)phenoxy)prop-1-en-1-yl)-7-oxo-6-((R)-1-((triethylsilyl)oxy)ethyl)-1-azabicyclo[3.2.0]hept-2-ene-2-carboxylic acid]",pronounced increase in the fluorescent signal,minimal changes in the fluorescent signal,pronounced increase in the fluorescent signal,minimal changes in the fluorescent signal,minimal changes in the fluorescent signal,"specific for NDM-1 and IMP-1, especially NDM-1",–,–,relative rate of hydrolysis reaction (IMP-1): slower compared to the reaction with NDM-1
"COC(=O)C1=C(/C=C/COc2ccc(COc3ccc4nc5ccc(=O)cc-5oc4c3)cc2OC)C[C@@H]2[C@@H]([C@@H](C)O)C(=O)N12 [MCW-003, Methyl (5R,6S)-6-((R)-1-hydroxyethyl)-3-((E)-3-(2-methoxy-4-(((3-oxo-3H-phenoxazin-7-yl)oxy)methyl)phenoxy)prop-1-en-1-yl)-7-oxo-1-azabicyclo[3.2.0]hept-2-ene-2-carboxylate]",–,–,–,–,–,–,unreactive to the tested beta-lactamases,–,–
"COc1ccc(-c2c3ccc(=O)cc-3oc3cc(OCc4ccc(OC/C=C/C5=C(C(=O)O)N6C(=O)[C@H]([C@@H](C)O)[C@H]6C5)c(OC)c4)ccc23)c(C)c1 [MCW-004, (5R,6S)-6-((R)-1-hydroxyethyl)-3-((E)-3-(2-methoxy-4-(((9-(4-methoxy-2-methylphenyl)-3-oxo-3H-xanthen-6-yl)oxy)methyl)phenoxy)prop-1-en-1-yl)-7-oxo-1-azabicyclo[3.2.0]hept-2-ene-2-carboxylic acid]",–,–,–,–,–,–,–,–,3S/k (detection limit of the probe towards the carbapenemase) (IMP-1): 0.328 pM; Kcat (IMP-1; Michaelis-Menten kinetics): 47.3 ± 3.34 s⁻¹; Km (IMP-1; Michaelis-Menten kinetics): 1.74 ± 0.29 µM; 3S/k (detection limit of the probe towards the carbapenemase) (KPC-2): 5.28 pM; Kcat (KPC-2; Michaelis-Menten kinetics): 2.36 ± 0.22 s⁻¹; Km (KPC-2; Michaelis-Menten kinetics): 3.41 ± 0.59 µM; 3S/k (detection limit of the probe towards the carbapenemase) (NDM-1): 0.546 pM; Kcat (NDM-1; Michaelis-Menten kinetics): 23.5 ± 0.98 s⁻¹; Km (NDM-1; Michaelis-Menten kinetics): 1.57 ± 0.16 µM; 3S/k (detection limit of the probe towards the carbapenemase) (OXA-48): 24.9 pM; Kcat (OXA-48; Michaelis-Menten kinetics): 10.2 ± 0.74 s⁻¹; Km (OXA-48; Michaelis-Menten kinetics): 1.09 ± 0.12 µM; 3S/k (detection limit of the probe towards the carbapenemase) (VIM-2): 5.37 pM; Kcat (VIM-2; Michaelis-Menten kinetics): 2.28 ± 0.07 s⁻¹; Km (VIM-2; Michaelis-Menten kinetics): 1.88 ± 0.13 µM; signal with panel of clinical isolates ([2]; incubated for 15 min): observable fluorogenic signal in CPE strains but not the Non CPE strains; signal with panel of clinical isolates ([2]; incubated for 120 min): observable fluorogenic signal in CPE strains but not the Non CPE strains
"COc1cc(COc2ccc3nc4ccc(=O)cc-4oc3c2)ccc1OC/C=C/C1=C(C(=O)N(C)O)N2C(=O)[C@H]([C@@H](C)O)[C@H]2C1 [MCW-006, (5R,6S)-N-hydroxy-6-((R)-1-hydroxyethyl)-3-((E)-3-(2-methoxy-4-(((3-oxo-3H-phenoxazin-7-yl)oxy)methyl)phenoxy)prop-1-en-1-yl)-N-methyl-7-oxo-1-azabicyclo[3.2.0]hept-2-ene-2-carboxamide]",–,–,–,–,–,–,unreactive to the tested beta-lactamases,–,–
"C[C@@H](O)[C@H]1C(=O)N2C(C(=O)O)=C(c3ccc(COc4ccc5nc6ccc(=O)cc-6oc5c4)cc3)C[C@H]12 [MCW-008, (5R,6S)-6-((R)-1-hydroxyethyl)-7-oxo-3-(4-(((3-oxo-3H-phenoxazin-7-yl)oxy)methyl)phenyl)-1-azabicyclo[3.2.0]hept-2-ene-2-carboxylic acid]",increase in the fluorescent signal,increase in the fluorescent signal,increase in the fluorescent signal,minimal changes in the fluorescent signal,minimal changes in the fluorescent signal,specific for carbapenemases,–,increase in the fluorescent signal,fluorescence signal over time (OXA-48): increase in the fluorescent signal
"COc1ccc(-c2c3ccc(=O)cc-3oc3cc(OCc4ccc(C5=C(C(=O)O)N6C(=O)[C@H]([C@@H](C)O)[C@H]6C5)cc4)ccc23)c(C)c1 [MCW-009, (5R,6S)-6-((R)-1-hydroxyethyl)-3-(4-(((9-(4-methoxy-2-methylphenyl)-3-oxo-3H-xanthen-6-yl)oxy)methyl)phenyl)-7-oxo-1-azabicyclo[3.2.0]hept-2-ene-2-carboxylic acid]",increase in the fluorescent signal,increase in the fluorescent signal,increase in the fluorescent signal,–,–,–,–,increase in the fluorescent signal,time until hydrolysis reaction complete (fluorescent signal plateaued) (IMP-1; probe 2.0 μM): > 20 min; time until hydrolysis reaction complete (fluorescent signal plateaued) (KPC-2; probe 2.0 μM): > 20 min; time until hydrolysis reaction complete (fluorescent signal plateaued) (NDM-1; probe 2.0 μM): > 20 min; time until hydrolysis reaction complete (fluorescent signal plateaued) (VIM-2; probe 2.0 μM): > 20 min
"C[C@@H](O)[C@H]1C(=O)N2C(C(=O)O)=C(c3ccc(COc4ccc5nc6ccc(=O)cc-6oc5c4)cc3[N+](=O)[O-])C[C@H]12 [MCW-010, (5R,6S)-6-((R)-1-hydroxyethyl)-3-(2-nitro-4-(((3-oxo-3H-phenoxazin-7-yl)oxy)methyl)phenyl)-7-oxo-1-azabicyclo[3.2.0]hept-2-ene-2-carboxylic acid]",–,–,–,–,–,–,did not exhibited changes in the fluorescence signal,–,–
"COc1ccc(-c2c3ccc(=O)cc-3oc3cc(OCc4ccc(OC/C=C/C5=C(C(=O)O)N6C(=O)[C@H]([C@@H](C)O)[C@H]6S5)c(OC)c4)ccc23)c(C)c1 [MCW-011, (5R,6S)-6-((R)-1-hydroxyethyl)-3-((E)-3-(2-methoxy-4-(((9-(4-methoxy-2-methylphenyl)-3-oxo-3H-xanthen-6-yl)oxy)methyl)phenoxy)prop-1-en-1-yl)-7-oxo-4-thia-1-azabicyclo[3.2.0]hept-2-ene-2-carboxylic acid]",increase in the fluorescent signal,increase in the fluorescent signal,increase in the fluorescent signal,minimal changes in the fluorescent signal,minimal changes in the fluorescent signal,specific for carbapenemases,–,increase in the fluorescent signal,fluorescence signal over time (OXA-48): increase in the fluorescent signal
